Test results reported in patent publication US12702644B2, “Pharmaceutical composition comprising ibuprofen and arginine” (priority 2021, dated 2026).

Assays:
[1] = test system: patients with cystic fibrosis; conditions: CF patients, cited from earlier work
[2] = test system: RAW 264.7 (murine macrophages); assay: Superoxide anion generation (DHE fluorescence) in murine macrophages stimulated with LPS; type: cell-based; conditions: FIG. 3; LPS 25 μM/mL, 60 min; Ibu 10, 50, 100 μM alone; Arg 50 μM alone; PBS
Description: The selected method measures the fluorescence of DHE generated from its interaction with superoxide anion (O2^−) to determine the inhibitory effect of the different formulations on the generation of O2^− in murine macrophages that have been stimulated with LPS. This method has been selected because, as Chen et al. [Chen, J., et al. (2013). Analysis of kinetics of dihydroethidium fluorescence with superoxide using xanthine oxidase and hypoxanthine assay. […]
After this incubation, basal fluorescence was measured on a Fluoroskan Ascent plate reader, Labsystems using λex=485 nm and λem=538 nm. […] The fluorescence of the plate was then re-recorded using the same filter as in the basal condition.
For the analysis of the results, the value corresponding to the basal fluorescence for each well was subtracted from each final time value. […]
Murine macrophages were stimulated with LPS (25 μM/mL) and treated with arginine 50 μM alone or with different concentrations of alkaline hypertonic ibuprofen (10, 50, and 100 μM) in PBS saline solution. The cells were loaded with dihydroethidium (DHE) for 30 min at 37° C. and after 60 min of stimulation, normalized fluorescence was determined with the basal reading. […]

Structure (SMILES) | FEV1 increase (average) ([1]; inhalation of 5 mL of 100 mg/mL twice daily, −8 ml after saline, difference not statistically significant) [mL] | exhaled NO ([1]; inhalation) | inhibition of LPS-stimulated generation of superoxide anion [2]
N=C(N)NCCC[C@H](N)C(=O)O [L-arginine] | 56 | significant increase | 
N=C(N)NCCC[C@H](N)C(=O)O [Arginine] |  |  | not inhibited
CC(C)Cc1ccc(C(C)C(=O)O)cc1 (stereo not shown) [Ibuprofen] |  |  | not inhibited
